Several values for one entry are separate records, joined by “and”; a condition that tells them apart may be missing. Identical values can stand only once. Inconclusive results and toxic doses are left out.
Tested on: BDF1 mice, L1210 leukemia sc, survival T/C
Test: NCI In Vivo Anticancer Drug Screen. Data for tumor model L1210 Leukemia (subcutaneous) in B6D2F1 (BDF1) mice
Settings: higher = longer survival
In short: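 Mice carrying transplanted tumors received test compounds, and survival or tumor size was measured. Values are the treated-group measurement (T) divided by that of the vehicle-treated control group (C).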

With `O=P1(N(CCCl)CCCl)NCCCO1` (centres undefined) the T/C (endpoint: mean survival time, dose: 70.0 mg/kg/injection, schedule: Q01DX001 (ip), vehicle: saline) was 161 % of control, the T/C (endpoint: mean survival time, dose: 100.0 mg/kg/injection, schedule: Q08DX003 (sc), vehicle: saline) was 190 % of control and the T/C (endpoint: mean survival time, dose: 140.0 mg/kg/injection, schedule: Q01DX001 (ip), vehicle: saline) was 180 % of control. The T/C (endpoint: mean survival time, dose: 200.0 mg/kg/injection, schedule: Q01DX001 (ip), vehicle: saline) was 219 % of control, the T/C (endpoint: mean survival time, dose: 200.0 mg/kg/injection, schedule: Q08DX003 (sc), vehicle: saline) was 221 % of control and the T/C (endpoint: mean survival time, dose: 280.0 mg/kg/injection, schedule: Q01DX001 (ip), vehicle: saline) was 232 % of control. For the same compound, the T/C (endpoint: mean survival time, dose: 400.0 mg/kg/injection, schedule: Q08DX003 (sc), vehicle: saline) was 171 % of control, the T/C (endpoint: mean survival time, dose: 560.0 mg/kg/injection, schedule: Q01DX001 (ip), vehicle: saline) was 91 % of control and the T/C (endpoint: median survival time, dose: 6.25 mg/kg/injection, schedule: Q01DX009 (ip), vehicle: saline) was 104 % of control. For the same compound, the T/C (endpoint: median survival time, dose: 6.25 mg/kg/injection, schedule: Q01DX009 (sc), vehicle: saline) was 98 % of control and 101 % of control, the T/C (endpoint: median survival time, dose: 8.4 mg/kg/injection, schedule: Q01DX Z (ip), vehicle: saline) was 100 % of control and the T/C (endpoint: median survival time, dose: 10.8 mg/kg/injection, schedule: Q01DX001 (ip), vehicle: saline) was 150 % of control. For the same compound, the T/C (endpoint: median survival time, dose: 12.5 mg/kg/injection, schedule: Q01DX009 (sc), vehicle: saline) was 107 % of control and 112 % of control, the T/C (endpoint: median survival time, dose: 14.0 mg/kg/injection, schedule: Q01DX Z (ip), vehicle: saline) was 110 % of control and 117 % of control and the T/C (endpoint: median survival time, dose: 14.0 mg/kg/injection, schedule: Q01DX Z (oral), vehicle: saline) was 104 % of control. For the same compound, the T/C (endpoint: median survival time, dose: 14.0 mg/kg/injection, schedule: Q01DX Z (sc), vehicle: other) was 110 % of control, the T/C (endpoint: median survival time, dose: 14.0 mg/kg/injection, schedule: Q#A X Z (sc), vehicle: saline) was 220 % of control and the T/C (endpoint: median survival time, dose: 18.0 mg/kg/injection, schedule: Q01DX001 (ip), vehicle: saline) was 200 % of control. The T/C (endpoint: median survival time, dose: 23.0 mg/kg/injection, schedule: Q01DX Z (ip), vehicle: saline) was 165 % of control, the T/C (endpoint: median survival time, dose: 23.0 mg/kg/injection, schedule: Q01DX Z (oral), vehicle: saline) was 120 % of control and the T/C (endpoint: median survival time, dose: 23.0 mg/kg/injection, schedule: Q01DX Z (sc), vehicle: other) was 195 % of control. For the same compound, the T/C (endpoint: median survival time, dose: 23.0 mg/kg/injection, schedule: Q## X Z (sc), vehicle: saline) was 110 % of control, the T/C (endpoint: median survival time, dose: 25.0 mg/kg/injection, schedule: Q01DX009 (ip), vehicle: saline) was 122 % of control and the T/C (endpoint: median survival time, dose: 39.0 mg/kg/injection, schedule: Q01DX Z (ip), vehicle: saline) was 243 % of control. For the same compound, the T/C (endpoint: median survival time, dose: 39.0 mg/kg/injection, schedule: Q01DX Z (oral), vehicle: saline) was 155 % of control and 215 % of control and 221 % of control, the T/C (endpoint: median survival time, dose: 39.0 mg/kg/injection, schedule: Q02DX Z (sc), vehicle: saline) was 225 % of control and the T/C (endpoint: median survival time, dose: 39.0 mg/kg/injection, schedule: Q07DX Z (sc), vehicle: saline) was 113 % of control and 115 % of control and 123 % of control. For the same compound, the T/C (endpoint: median survival time, dose: 39.0 mg/kg/injection, schedule: Q## X Z (sc), vehicle: saline) was 150 % of control, the T/C (endpoint: median survival time, dose: 39.0 mg/kg/injection, schedule: Q#A X Z (sc), vehicle: saline) was 230 % of control and the T/C (endpoint: median survival time, dose: 50.0 mg/kg/injection, schedule: Q01DX009 (ip), vehicle: saline) was 162 % of control. For the same compound, the T/C (endpoint: median survival time, dose: 50.0 mg/kg/injection, schedule: Q01DX009 (sc), vehicle: saline) was 163 % of control and 181 % of control, the T/C (endpoint: median survival time, dose: 50.0 mg/kg/injection, schedule: Q08DX003 (sc), vehicle: saline) was 122 % of control and the T/C (endpoint: median survival time, dose: 65.0 mg/kg/injection, schedule: Q01DX Z (ip), vehicle: saline) was 213 % of control. The T/C (endpoint: median survival time, dose: 65.0 mg/kg/injection, schedule: Q01DX Z (oral), vehicle: saline) was 161 % of control and 182 % of control, the T/C (endpoint: median survival time, dose: 65.0 mg/kg/injection, schedule: Q01DX Z (sc), vehicle: other) was 240 % of control and the T/C (endpoint: median survival time, dose: 65.0 mg/kg/injection, schedule: Q07DX Z (sc), vehicle: saline) was 165 % of control and 175 % of control. The T/C (endpoint: median survival time, dose: 65.0 mg/kg/injection, schedule: Q#A X Z (sc), vehicle: saline) was 150 % of control, the T/C (endpoint: median survival time, dose: 69.0 mg/kg/injection, schedule: Q07DX003 (sc), vehicle: saline) was 188 % of control and 190 % of control and the T/C (endpoint: median survival time, dose: 100.0 mg/kg/injection, schedule: Q07DX003 (sc), vehicle: saline) was 244 % of control. The T/C (endpoint: median survival time, dose: 100.0 mg/kg/injection, schedule: Q07DX004 (sc), vehicle: saline) was 211 % of control and 213 % of control, the T/C (endpoint: median survival time, dose: 100.0 mg/kg/injection, schedule: Q16DX002 (sc), vehicle: saline) was 157 % of control and 161 % of control (2×) and the T/C (endpoint: median survival time, dose: 100.0 mg/kg/injection, schedule: Q## X002 (sc), vehicle: saline) was 155 % of control. The T/C (endpoint: median survival time, dose: 108.0 mg/kg/injection, schedule: Q01DX001 (sc), vehicle: other) was 160 % of control, the T/C (endpoint: median survival time, dose: 108.0 mg/kg/injection, schedule: Q01DX014 (sc), vehicle: saline) was 163 % of control and the T/C (endpoint: median survival time, dose: 108.0 mg/kg/injection, schedule: Q01DX Z (ip), vehicle: saline) was 113 % of control. The T/C (endpoint: median survival time, dose: 108.0 mg/kg/injection, schedule: Q01DX Z (oral), vehicle: saline) was 208 % of control and 240 % of control, the T/C (endpoint: median survival time, dose: 108.0 mg/kg/injection, schedule: Q01DX Z (sc), vehicle: other) was 180 % of control and the T/C (endpoint: median survival time, dose: 108.0 mg/kg/injection, schedule: Q07DX Z (sc), vehicle: saline) was 171 % of control. For the same compound, the T/C (endpoint: median survival time, dose: 108.0 mg/kg/injection, schedule: Q08DX003 (ip), vehicle: saline) was 109 % of control, the T/C (endpoint: median survival time, dose: 180.0 mg/kg/injection, schedule: Q01DX001 (sc), vehicle: other) was 191 % of control and the T/C (endpoint: median survival time, dose: 180.0 mg/kg/injection, schedule: Q01DX014 (sc), vehicle: saline) was 217 % of control. The T/C (endpoint: median survival time, dose: 180.0 mg/kg/injection, schedule: Q02DX Z (sc), vehicle: saline) was 170 % of control, the T/C (endpoint: median survival time, dose: 180.0 mg/kg/injection, schedule: Q07DX Z (sc), vehicle: saline) was 195 % of control and 226 % of control and the T/C (endpoint: median survival time, dose: 180.0 mg/kg/injection, schedule: Q08DX003 (ip), vehicle: saline) was 121 % of control. For the same compound, the T/C (endpoint: median survival time, dose: 200.0 mg/kg/injection, schedule: Q01DX001 (ip), vehicle: saline) was 200 % of control and 205 % of control, the T/C (endpoint: median survival time, dose: 200.0 mg/kg/injection, schedule: Q16DX002 (sc), vehicle: saline) was 183 % of control and 206 % of control (2×) and the T/C (endpoint: median survival time, dose: 200.0 mg/kg/injection, schedule: Q## X002 (sc), vehicle: saline) was 180 % of control. The T/C (endpoint: median survival time, dose: 256.0 mg/kg/injection, schedule: Q01DX001 (sc), vehicle: saline) was 213 % of control and 215 % of control, the T/C (endpoint: median survival time, dose: 300.0 mg/kg/injection, schedule: Q01DX001 (ip), vehicle: saline) was 240 % of control and 242 % of control and the T/C (endpoint: median survival time, dose: 300.0 mg/kg/injection, schedule: Q01DX001 (sc), vehicle: other) was 243 % of control. For the same compound, the T/C (endpoint: median survival time, dose: 300.0 mg/kg/injection, schedule: Q01HX002 (ip), vehicle: saline) was 113 % of control, the T/C (endpoint: median survival time, dose: 300.0 mg/kg/injection, schedule: Q07DX Z (sc), vehicle: saline) was 217 % of control and 219 % of control and the T/C (endpoint: median survival time, dose: 300.0 mg/kg/injection, schedule: Q08DX003 (ip), vehicle: saline) was 113 % of control. For the same compound, the T/C (endpoint: median survival time, dose: 300.0 mg/kg/injection, schedule: Q16DX002 (ip), vehicle: saline) was 115 % of control, the T/C (endpoint: median survival time, dose: 320.0 mg/kg/injection, schedule: Q01DX001 (sc), vehicle: saline) was 235 % of control and 240 % of control and the T/C (endpoint: median survival time, dose: 400.0 mg/kg/injection, schedule: Q07DX004 (sc), vehicle: saline) was 166 % of control. The T/C (endpoint: median survival time, dose: 400.0 mg/kg/injection, schedule: Q16DX002 (sc), vehicle: saline) was 222 % of control and 239 % of control (2×), the T/C (endpoint: median survival time, dose: 400.0 mg/kg/injection, schedule: Q## X002 (sc), vehicle: saline) was 220 % of control and the T/C (endpoint: median survival time, dose: 500.0 mg/kg/injection, schedule: Q01DX001 (sc), vehicle: other) was 217 % of control.

Source: PubChem BioAssay AID250 (DTP/NCI, 2004)
